Test results published in patent US20040022850A1, “Modified release formulation” (priority 2000, published 2004).
Values after ≈ are worked out from the molar mass of the structure shown.

Assay: Solubility of the model drugs
Type: physicochemical

Row | Compound | solubility [µg/mL]
1 | CCCCOC(=O)c1ccc(O)cc1 [butyl paraben] | 200 (≈ 1030 µM)
2 | CC(C)n1c(/C=C/C(O)CC(O)CC(=O)O)c(-c2ccc(F)cc2)c2ccccc21 (centres unmarked) [fluvastatin] | > 50000
